Patent US6391896B1, “3-Tetrahydropyridin-4-yl indoles for treatment of psychotic disorders” (Duphar International Research BV, priority 1998, dated 2002)

For `O=C1c2ccc(F)cc2C(=O)N1CCCCN1CC=C(c2c[nH]c3ccc(F)cc23)CC1`, the melting point was 197 to 199 °C.
